According to patent US7858621B2 (Amorepacific Corporation, priority 2006, dated 2010):

Target: T1, vanilloid receptor (Rattus norvegicus, UniProt O35433)
T1 construct: DRG nerve cells from the primary culture of 2 days were equilibrated; endogenous in cells; host or cells: primary culture of dorsal root ganglion neurons from neonatal SD rats
Test: 45Ca influx test in cultured neonatal rat DRG neurons, inhibition of capsaicin response
Type: cell-based
Details: neonatal rat DRG neurons, capsaicin 0.5 μM, 45Ca influx; read-out: Antagonist Calcium Uptake Test (IC50)
Outline: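 45Ca influx measured by scintillation counting of SDS-eluted neurons after 10 min at room temperature with test compound, 0.5 μM capsaicin (final) and 10 μCi/ml 45Ca in Ca/Mg-free HEPES-HBSS pH 7.4. Cells: primary DRG neurons from newborn SD rats, cultured 2 days with NGF and Ara-C.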

T1 sequence (O35433 whole entry): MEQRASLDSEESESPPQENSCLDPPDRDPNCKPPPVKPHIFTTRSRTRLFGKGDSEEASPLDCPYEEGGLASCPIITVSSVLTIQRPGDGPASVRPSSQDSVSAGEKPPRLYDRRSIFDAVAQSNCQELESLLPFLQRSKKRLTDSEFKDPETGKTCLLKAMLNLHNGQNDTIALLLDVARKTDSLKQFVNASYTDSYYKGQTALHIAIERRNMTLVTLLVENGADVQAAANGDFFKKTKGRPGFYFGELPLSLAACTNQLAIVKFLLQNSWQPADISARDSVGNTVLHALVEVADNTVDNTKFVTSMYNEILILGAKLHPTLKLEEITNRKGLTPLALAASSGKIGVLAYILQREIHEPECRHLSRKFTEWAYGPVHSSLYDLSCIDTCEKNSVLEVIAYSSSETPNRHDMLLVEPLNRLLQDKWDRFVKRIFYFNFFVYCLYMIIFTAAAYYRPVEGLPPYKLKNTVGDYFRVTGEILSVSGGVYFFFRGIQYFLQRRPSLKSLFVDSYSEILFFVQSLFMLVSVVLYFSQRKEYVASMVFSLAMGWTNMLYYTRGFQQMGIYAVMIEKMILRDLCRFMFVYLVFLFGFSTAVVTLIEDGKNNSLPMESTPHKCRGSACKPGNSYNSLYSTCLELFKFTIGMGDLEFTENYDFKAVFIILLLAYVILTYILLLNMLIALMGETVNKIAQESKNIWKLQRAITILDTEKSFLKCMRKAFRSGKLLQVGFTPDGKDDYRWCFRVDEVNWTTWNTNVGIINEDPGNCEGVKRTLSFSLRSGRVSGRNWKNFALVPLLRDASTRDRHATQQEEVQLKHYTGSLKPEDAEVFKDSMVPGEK

| IC50 | SMILES |
| --- | --- |
| 450 nM | C#Cc1cc(CNC(=O)/C=C/c2ccc(C(F)(F)F)nc2/C=C/c2ccccc2)cc(F)c1NS(C)(=O)=O [Example 157, N-(3-Ethynyl-5-fluoro-4-methanesulfonylamino-benzyl)-3-(2-styryl-6-trifluoromethyl-pyridin-3-yl)-acrylamide] |
| 11900 nM | CS(=O)(=O)Nc1ccc(CNC(=O)/C=C/c2ccc(C(F)(F)F)nc2Oc2cccnc2)cc1F [Example 81, N-(3-Fluoro-4-methanesulfonylamino-benzyl)-3-[2-(pyridin-3-yloxy)-6-trifluoromethyl-pyridin-3-yl]-acrylamide] |
| 190 nM | CCC(C)c1nc(C(F)(F)F)ccc1/C=C/C(=O)NCc1cc(F)c(NS(C)(=O)=O)c(F)c1 (stereo not drawn) [Example 235, N-(3,5-Difluoro-4-methanesulfonylamino-benzyl)-3-(2-sec-butyl-6-trifluoromethyl-pyridin-3-yl)-acrylamide] |
| 200 nM | Cc1cc(CNC(=O)/C=C/c2ccc(C(F)(F)F)nc2CCc2ccccc2)cc(F)c1NS(C)(=O)=O [Example 173, N-(3-Fluoro-4-methanesulfonylamino-5-methyl-benzyl)-3-(2-phenethyl-6-trifluoromethyl-pyridin-3-yl)-acrylamide] |
| 210 nM | C#Cc1cc(CNC(=O)/C=C/c2ccc(C(F)(F)F)nc2CC)cc(F)c1NS(C)(=O)=O [Example 150, 3-(2-Ethyl-6-trifluoromethyl-pyridin-3-yl)-N-(3-ethynyl-5-fluoro-4-methanesulfonylamino-benzyl)-acrylamide] |
| 600 nM | CS(=O)(=O)Nc1c(F)cc(CNC(=O)/C=C/c2ccc(C(F)(F)F)nc2Nc2ccccc2)cc1C#N [Example 128, N-(3-Cyano-5-fluoro-4-methanesulfonylamino-benzyl)-3-(2-phenylamino-6-trifluoromethyl-pyridin-3-yl)-acrylamide] |
| 2400 nM | CCOCc1nc(C(F)(F)F)ccc1/C=C/C(=O)NCc1ccc(NS(C)(=O)=O)c(F)c1 [Example 160, N-(3-Fluoro-4-methanesulfonylamino-benzyl)-3-(2-ethoxymethyl-6-trifluoromethyl-pyridin-3-yl)-acrylamide] |
| 68 nM | CCNc1nc(C(F)(F)F)ccc1/C=C/C(=O)NCc1ccc(NS(C)(=O)=O)c(F)c1 [Example 256, 3-(2-Ethylamino-6-trifluoromethyl-pyridin-3-yl)-N-(3-fluoro-4-methanesulfonylamino-benzyl)-acrylamide] |
| 43 nM | C#Cc1cc(CNC(=O)/C=C/c2ccc(C(F)(F)F)nc2CC(C)CC)cc(F)c1NS(C)(=O)=O (stereo not drawn) [Example 152, N-(3-Ethynyl-5-fluoro-4-methanesulfonylamino-benzyl)-3-[2-(2-methyl-butyl)-6-trifluoromethyl-pyridin-3-yl]-acrylamide] |
| > 10000 nM | C#Cc1cc(CNC(=O)/C=C/c2ccc(N3CCOCC3)nc2)cc(F)c1NS(C)(=O)=O [Examples 23] |
| 71 nM | Cc1cc(CNC(=O)/C=C/c2ccc(C(F)(F)F)nc2NC(C)C)cc(F)c1NS(C)(=O)=O [Example 220, N-(3-Fluoro-4-methanesulfonylamino-5-methyl-benzyl)-3-(2-isopropylamino-6-trifluoromethyl-pyridin-3-yl)-acrylamide] |
| 2100 nM | C#Cc1cc(CNC(=O)/C=C/c2ccc(C(F)(F)F)nc2N2CCC[C@H]2CO)cc(F)c1NS(C)(=O)=O (stereo in doubt) [Example 83, N-(3-Ethynyl-5-fluoro-4-methansulfonylamino-benzyl)-3-[2-(2-hydroxymethyl-pyrrolidin-1-yl)-6-trifluoromethyl-pyridin-3-yl]-acrylamide] |
| 740 nM | CC(C)Oc1nc(C(F)(F)F)ccc1/C=C/C(=O)NCc1ccc(NS(C)(=O)=O)c(F)c1 [Example 108, N-(3-Fluoro-4-methanesulfonylamino-benzyl)-3-(2-isopropoxy-6-trifluoromethyl-pyridin-3-yl)-acrylamide] |
| 290 nM | CS(=O)(=O)Nc1c(F)cc(CNC(=O)/C=C/c2ccc(C(F)(F)F)nc2N2CCCC2)cc1C#N [Example 97, N-(3-Cyano-5-fluoro-4-methanesulfonylamino-benzyl)-3-(2-pyrrolidin-1-yl-6-trifluoromethyl-pyridin-3-yl)-acrylamide] |
| 300 nM | C=Cc1cc(CNC(=O)/C=C/c2ccc(C(F)(F)F)nc2N2CCOCC2)ccc1NS(C)(=O)=O [Example 6, N-(4-Methanesulfonylamino-3-vinyl-benzyl)-3-(2-morpholin-4-yl-6-trifluoromethyl-pyridin-3-yl)-acrylamide] |
| > 10000 nM | CS(=O)(=O)Nc1ccc(CNC(=O)/C=C/c2ccc(C(F)(F)F)nc2)cc1F [Example 58, N-(3-Fluoro-4-methanesulfonylamino-benzyl)-3-(6-trifluoromethyl-pyridin-3-yl)-acrylamide] |
| 840 nM | COCCNc1nc(C(F)(F)F)ccc1/C=C/C(=O)NCc1cc(F)c(NS(C)(=O)=O)c(C#N)c1 [Example 101, N-(3-Cyano-5-fluoro-4-methanesulfonylamino-benzyl)-3-[2-(2-methoxy-ethylamino)-6-trifluoromethyl-pyridin-3-yl]-acrylamide] |
| 1600 nM | CC(C)(C)c1ccc(OCC(=O)NCc2ccc(NS(C)(=O)=O)c(F)c2)c(Br)n1 [Examples 28] |
| 67 nM | CCNc1nc(C(F)(F)F)ccc1/C=C/C(=O)N[C@H](C)c1cc(F)c(NS(C)(=O)=O)c(F)c1 [Example 244, (R)—N-[1-(3,5-Difluoro-4-methanesulfonylamino-phenyl)-ethyl]-3-(2-ethylamino-6-trifluoromethyl-pyridin-3-yl)-acrylamide] |
| 1100 nM | C#Cc1cc(CNC(=O)/C=C/c2ccc(C(F)(F)F)nc2C#CCOC)cc(F)c1NS(C)(=O)=O [Example 153, N-(3-Ethynyl-5-fluoro-4-methanesulfonylamino-benzyl)-3-[2-(3-methoxy-prop-1-ynyl)-6-trifluoromethyl-pyridin-3-yl]-acrylamide] |
| 2200 nM | COCCCc1nc(C(F)(F)F)ccc1/C=C/C(=O)NCc1ccc(NS(C)(=O)=O)c(F)c1 [Example 156, N-(3-Fluoro-4-methanesulfonylamino-benzyl)-3-[2-(3-methoxy-propyl)-6-trifluoromethyl-pyridin-3-yl]-acrylamide] |
| > 10000 nM | C#Cc1cc(CNC(=O)/C=C/c2ccc(Cl)nc2)cc(F)c1NS(C)(=O)=O [Example 14, 3-(6-Chloro-pyridin-3-yl)-N-(3-ethynyl-5-fluoro-4-methanesulfonylamino-benzyl)-acrylamide] |
| 76 nM | CCCCc1nc(C(F)(F)F)ccc1/C=C/C(=O)NCc1ccc(NS(C)(=O)=O)c(C)c1 [Example 194, 3-(2-Butyl-6-trifluoromethyl-pyridin-3-yl)-N-(4-methanesulfonylamino-3-methyl-benzyl)-acrylamide] |
| 77 nM | C#Cc1cc(CNC(=O)/C=C/c2ccc(C(F)(F)F)nc2NC(C)CC)cc(F)c1NS(C)(=O)=O (stereo not drawn) [Example 117, 3-(2-sec-Butylamino-6-trifluoromethyl-pyridin-3-yl)-N-(3-ethynyl-5-fluoro-4-methanesulfonylamino-benzyl)-acrylamide] |
| 1800 nM | COCCOc1nc(C(F)(F)F)ccc1/C=C/C(=O)NCc1cc(F)c(NS(C)(=O)=O)c(C#N)c1 [Example 99, N-(3-Cyano-5-fluoro-4-methanesulfonylamino-benzyl)-3-[2-(2-methoxy-ethoxy)-6-trifluoromethyl-pyridin-3-yl]-acrylamide] |
| 630 nM | CS(=O)(=O)Nc1c(F)cc(CNC(=O)/C=C/c2ccc(C(F)(F)F)nc2Oc2ccccc2)cc1C#N [Example 105, N-(3-Cyano-5-fluoro-4-methanesulfonylamino-benzyl)-3-(2-phenoxy-6-trifluoromethyl-pyridin-3-yl)-acrylamide] |
| 34 nM | CC[C@@H](C)c1nc(C(F)(F)F)ccc1/C=C/C(=O)NCc1ccc(NS(C)(=O)=O)c(C)c1 [Example 241, (R)-3-(2-sec-Butyl-6-trifluoromethyl-pyridin-3-yl)-N-1-(4-methanesulfonylamino-3-methyl-benzyl)-acrylamide] |
| > 10000 nM | CC(C)(C)c1ccc(OCC(=O)NCc2ccc(NS(C)(=O)=O)c(F)c2)cn1 [Example 29, 2-(6-tert-Butyl-pyridin-3-yloxy)-N-(3-fluoro-4-methanesulfonylamino-benzyl)-acetamide] |
| 230 nM | Cc1cc(CNC(=O)/C=C/c2ccc(C(F)(F)F)nc2N2CCCCC2)ccc1NS(C)(=O)=O [Example 184, N-(4-Methanesulfonylamino-3-methyl-benzyl)-3-(2-piperid-1-yl-6-trifluoromethyl-pyridin-3-yl)-acrylamide] |
| 160 nM | C#Cc1cc(CNC(=O)/C=C/c2ccc(C(F)(F)F)nc2NCCCC)cc(F)c1NS(C)(=O)=O [Example 72, 3-(2-Butylamino-6-trifluoromethyl-pyridin-3-yl)-N-(3-ethynyl-5-fluoro-4-methanesulfonylamino-benzyl)-acrylamide] |

| SMILES | IC50 |
| --- | --- |
| C#Cc1cc(CNC(=O)/C=C/c2ccc(C(F)(F)F)nc2OCC(C)C)cc(F)c1NS(C)(=O)=O [Example 74, N-(3-Ethynyl-5-fluoro-4-methanesulfonylamino-benzyl)-3-(2-isobutoxy-6-trifluoromethyl-pyridin-3-yl)-acrylamide] | 510 nM |
| CCC(C)Oc1nc(C(F)(F)F)ccc1/C=C/C(=O)NCc1cc(F)c(NS(C)(=O)=O)c(C#N)c1 (stereo not drawn) [Example 106, 3-(2-sec-Butoxy-6-trifluoromethyl-pyridin-3-yl)-N-(3-cyano-5-fluoro-4-methanesulfonylamino-benzyl)-acrylamide] | 83 nM |
| CCCCOc1nc(C(F)(F)F)ccc1/C=C/C(=O)NCc1cc(F)c(NS(C)(=O)=O)c(C#N)c1 [Example 98, 3-(2-Butoxy-6-trifluoromethyl-pyridin-3-yl)-N-(3-cyano-5-fluoro-4-methanesulfonylamino-benzyl)-acrylamide] | 190 nM |
